Tests used:
[1] = Inhibition of Toxoplasma gondii DHFR
[2] = Inhibition of Escherichia coli DHFR
Dihydrofolate reductase = target: T1, Dihydrofolate reductase (Homo sapiens, UniProt P00374)
T1 sequence (P00374 whole entry): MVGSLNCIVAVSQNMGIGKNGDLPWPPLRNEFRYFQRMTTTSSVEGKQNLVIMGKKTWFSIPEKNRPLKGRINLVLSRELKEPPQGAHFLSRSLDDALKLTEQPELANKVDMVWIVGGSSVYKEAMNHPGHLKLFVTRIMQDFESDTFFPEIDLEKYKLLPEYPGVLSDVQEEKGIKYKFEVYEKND

[3] = Selectivity ratio of IC50 for Toxoplasma gondii DHFR over IC50 for human recombinant DHFR
Escherichia coli [4] = assay: Inhibition of Escherichia coli DHFR at >[…] uM
Thymidylate synthase [5] = target: Thymidylate synthase (Escherichia coli, UniProt C3SWJ7); assay: Inhibition of Escherichia coli thymidylate synthase
Thymidylate synthase [6] = target: Thymidylate synthase (Homo sapiens, UniProt P04818); assay: Inhibition of human thymidylate synthase
[7] = Inhibition of Toxoplasma gondii thymidylate synthase
[8] = target: Thymidylate synthase (Escherichia coli) (UniProt C3SWJ7); assay: Inhibition of Escherichia coli thymidylate synthase >[…] uM
Toxoplasma gondii [9] = assay: Inhibition of Toxoplasma gondii thymidylate synthase at >[…] uM
[10] = target: Thymidylate synthase (Escherichia coli) (UniProt C3SWJ7); assay: Inhibition of Escherichia coli thymidylate synthase at >[…] uM
[11] = target: T2, Dihydrofolate reductase (Homo sapiens) (UniProt P00374); assay: Inhibition of human recombinant DHFR at >62 uM
T2 sequence (whole entry): T1 sequence (P00374 whole entry)

[12] = target: Thymidylate synthase (Escherichia coli) (UniProt C3SWJ7); assay: Inhibition of Escherichia coli thymidylate synthase at >20 uM
[13] = target: T2, Dihydrofolate reductase (Homo sapiens); assay: Inhibition of human recombinant DHFR at >[…] uM
Toxoplasma gondii [14] = assay: Inhibition of Toxoplasma gondii thymidylate synthase at >20 uM
Escherichia coli [15] = assay: Inhibition of Escherichia coli DHFR at >30 uM

Sequence of Thymidylate synthase (Homo sapiens, UniProt P04818) (P04818 whole entry): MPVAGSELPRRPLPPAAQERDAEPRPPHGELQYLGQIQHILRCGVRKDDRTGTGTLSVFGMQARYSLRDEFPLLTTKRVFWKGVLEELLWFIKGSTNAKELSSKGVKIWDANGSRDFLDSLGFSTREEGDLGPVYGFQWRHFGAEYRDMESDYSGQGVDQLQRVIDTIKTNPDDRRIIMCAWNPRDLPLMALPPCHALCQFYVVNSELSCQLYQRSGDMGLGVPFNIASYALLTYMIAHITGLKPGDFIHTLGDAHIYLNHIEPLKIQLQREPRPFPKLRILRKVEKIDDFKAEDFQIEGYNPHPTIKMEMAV
Sequence of Thymidylate synthase (Escherichia coli) (C3SWJ7 1-264): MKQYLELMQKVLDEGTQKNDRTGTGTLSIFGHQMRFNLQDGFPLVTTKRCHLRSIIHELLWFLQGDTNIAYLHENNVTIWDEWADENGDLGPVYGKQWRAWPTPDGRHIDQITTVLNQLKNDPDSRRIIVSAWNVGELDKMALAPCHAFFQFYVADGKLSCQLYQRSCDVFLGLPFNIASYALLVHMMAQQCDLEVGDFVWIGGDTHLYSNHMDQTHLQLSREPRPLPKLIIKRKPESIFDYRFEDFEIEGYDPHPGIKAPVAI
Sequence of Thymidylate synthase (Escherichia coli, UniProt C3SWJ7) (C3SWJ7 whole entry): as the sequence (C3SWJ7 1-264) above

Cc1cc2nc(N)[nH]c(=O)c2n1Cc1ccc(OC(F)(F)F)cc1
IC50 [1]: 0.3 µM
IC50 [2]: > 35 µM
IC50 (Dihydrofolate reductase): > 35 µM
Ratio IC50 [3]: > 117
inhibition (Escherichia coli [4]): 0%
IC50 (Thymidylate synthase [5]): 7.5 µM
IC50 (Thymidylate synthase [6]): 1.3 µM
IC50 [7]: 13 µM

Cc1cc2nc(N)[nH]c(=O)c2n1Cc1cc(Cl)cc(Cl)c1
IC50 [1]: 15 µM
inhibition [8]: 15%
IC50 [2]: > 31 µM
inhibition (Toxoplasma gondii [9]): 13%
IC50 (Dihydrofolate reductase): > 31 µM
Ratio IC50 [3]: > 2.1
inhibition (Escherichia coli [4]): 0%
IC50 (Thymidylate synthase [5]): > 26 µM
inhibition [10]: 0%
IC50 (Thymidylate synthase [6]): > 26 µM
IC50 [7]: > 26 µM

Cc1cc2nc(N)[nH]c(=O)c2n1Cc1ccc(Cl)c(Cl)c1
IC50 [1]: 1.6 µM
IC50 [2]: > 32 µM
IC50 (Dihydrofolate reductase): > 32 µM
Ratio IC50 [3]: > 20
inhibition (Escherichia coli [4]): 0%
IC50 (Thymidylate synthase [5]): 27 µM
IC50 (Thymidylate synthase [6]): 5.4 µM
IC50 [7]: 27 µM

Cc1[nH]c2nc(N)[nH]c(=O)c2c1Sc1ccc(Cl)c(Cl)c1
IC50 (Dihydrofolate reductase): > 62 µM
inhibition [11]: 0%

Cc1[nH]c2nc(N)[nH]c(=O)c2c1Sc1ccc([N+](=O)[O-])cc1
IC50 (Dihydrofolate reductase): > 54 µM

Cc1cc2nc(N)[nH]c(=O)c2n1Cc1ccncc1
IC50 [1]: 20 µM
IC50 [2]: 39 µM
IC50 (Dihydrofolate reductase): > 37 µM
Ratio IC50 [3]: > 1.8
IC50 (Thymidylate synthase [5]): 12 µM
IC50 (Thymidylate synthase [6]): 2.3 µM
IC50 [7]: 15 µM

Cc1cc2nc(N)[nH]c(=O)c2n1Cc1ccc(C(=O)N[C@@H](CCC(=O)O)C(=O)O)cc1
IC50 [1]: 0.023 µM
IC50 [2]: > 23 µM
IC50 (Dihydrofolate reductase): 0.12 µM
Ratio IC50 [3]: 5.2
inhibition (Escherichia coli [4]): 23%
IC50 (Thymidylate synthase [5]): 0.069 µM
IC50 (Thymidylate synthase [6]): 0.046 µM
IC50 [7]: 0.23 µM

Cc1cc2nc(N)[nH]c(=O)c2n1Cc1ccccc1
IC50 [1]: 3.9 µM
IC50 [2]: > 39 µM
inhibition (Toxoplasma gondii [9]): 0%
IC50 (Dihydrofolate reductase): > 39 µM
Ratio IC50 [3]: > 10
IC50 (Thymidylate synthase [5]): > 39 µM
IC50 (Thymidylate synthase [6]): 20 µM
IC50 [7]: > 39 µM

Cc1cc2nc(N)[nH]c(=O)c2n1Cc1cc(Br)cc(Br)c1
IC50 [1]: 24 µM
IC50 [2]: > 24 µM
IC50 (Dihydrofolate reductase): > 24 µM
Ratio IC50 [3]: > 1
inhibition (Escherichia coli [4]): 0%
inhibition [12]: 36%
IC50 (Thymidylate synthase [5]): > 20 µM
inhibition [13]: 0%
inhibition (Toxoplasma gondii [14]): 24%
IC50 (Thymidylate synthase [6]): 10 µM
IC50 [7]: > 20 µM

Cc1cc2nc(N)[nH]c(=O)c2n1Cc1ccc(F)cc1
IC50 [1]: 1.8 µM
IC50 [2]: > 37 µM
IC50 (Dihydrofolate reductase): > 37 µM
Ratio IC50 [3]: > 20.5
inhibition (Escherichia coli [4]): 0%
IC50 (Thymidylate synthase [5]): 31 µM
IC50 (Thymidylate synthase [6]): 3.7 µM
IC50 [7]: 22 µM

Cc1cc2nc(N)[nH]c(=O)c2n1Cc1ccc(Br)cc1
inhibition (Escherichia coli [15]): 10%
IC50 [1]: 0.27 µM
IC50 [2]: > 30 µM
IC50 (Dihydrofolate reductase): > 35 µM
Ratio IC50 [3]: > 130
IC50 (Thymidylate synthase [5]): 7.5 µM
IC50 (Thymidylate synthase [6]): 1.3 µM
IC50 [7]: 18 µM

Cc1cc2nc(N)[nH]c(=O)c2n1Cc1ccc(Cl)cc1
IC50 [1]: 0.35 µM
IC50 [2]: > 35 µM
IC50 (Dihydrofolate reductase): > 35 µM
Ratio IC50 [3]: > 100
inhibition (Escherichia coli [4]): 0%
IC50 (Thymidylate synthase [5]): 1.5 µM
IC50 (Thymidylate synthase [6]): 2.9 µM
IC50 [7]: 17 µM

Cc1cc2nc(N)[nH]c(=O)c2n1Cc1ccc([N+](=O)[O-])cc1
IC50 [1]: 0.33 µM
IC50 [2]: > 33 µM
IC50 (Dihydrofolate reductase): 33 µM
Ratio IC50 [3]: 100
inhibition (Escherichia coli [4]): 0%
IC50 (Thymidylate synthase [5]): 14 µM
IC50 (Thymidylate synthase [6]): 1.4 µM
IC50 [7]: 28 µM

COc1ccc(Cn2c(C)cc3nc(N)[nH]c(=O)c32)cc1
IC50 [1]: 3.5 µM
IC50 [2]: > 35 µM
IC50 (Dihydrofolate reductase): > 35 µM
Ratio IC50 [3]: > 10
inhibition (Escherichia coli [4]): 0%
IC50 (Thymidylate synthase [5]): 15 µM
IC50 (Thymidylate synthase [6]): 1.5 µM
IC50 [7]: 17 µM

From ChEMBL document CHEMBL1140703, “Design, synthesis, and biological evaluation of classical and nonclassical 2-amino-4-oxo-5-substituted-6-methylpyrrolo[3,2-d]pyrimidines as dual thymidylate synthase and dihydrofolate reductase inhibitors” (J Med Chem, 2008)
